Data as given in patent publication US10036068B1, “Diagnosis, prognosis, and treatment of myocardial infarction” (Vanderbilt University, priority 2012, dated 2018).

Assays:
Format in all cases: cell-based
thromboxane receptor = molecular target: T1, thromboxane receptor (Homo sapiens, UniProt P21731); assay: U46,619 dose-response (aggregation, ATP release) in responder and non-responder samples; settings: responders vs non-responders; FIG. 4
T1 construct: Platelets were collected from individuals and studied by light transmission aggregometry; endogenous in cells; host or cells: human platelets from responder and non-responder individuals
T1 sequence (P21731 1-343): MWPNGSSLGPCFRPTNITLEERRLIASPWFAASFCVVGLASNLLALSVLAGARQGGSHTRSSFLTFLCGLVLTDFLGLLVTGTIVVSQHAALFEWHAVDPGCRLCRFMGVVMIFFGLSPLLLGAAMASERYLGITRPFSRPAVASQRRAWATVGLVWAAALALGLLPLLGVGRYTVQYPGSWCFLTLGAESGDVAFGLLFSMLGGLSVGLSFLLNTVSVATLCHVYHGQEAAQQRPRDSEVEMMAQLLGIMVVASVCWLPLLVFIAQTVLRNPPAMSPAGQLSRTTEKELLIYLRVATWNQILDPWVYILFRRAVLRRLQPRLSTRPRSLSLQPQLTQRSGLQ
From the text: FIG. 4 includes plots of maximal aggregation (left) and ATP release (right) as a function of U46,610 concentration for both responder and non-responder individuals, and showing that there is little to no difference in U46,619 dose-response between the different phenotypic groups.
(§1) This Examples describes a study conducted to characterize the regulation of thromboxane-dependent human platelet activation by PGE2, and particularly nanomolar concentrations of PGE2. Platelets were collected from individuals and studied by light transmission aggregometry. Next, it was observed how low nanomolar concentrations of PGE2 effect aggregation and dense granule release induced by sub-maximal concentrations of an agonist of the thromboxane receptor (U46,619), thrombin, collagen, and ADP.
Samples from responders and non-responders were also exposed to different doses of U46,619.

human platelet [1] = assay: PGE2 effect on human platelet aggregation and dense granule release, light transmission aggregometry; settings: agonist concentrations producing full activation of the platelets (max); even micromolar PGE2; FIG. 1
human platelet [2] = assay: as above
From the text: as §1

| SMILES | difference in U46,619 dose-response between phenotypic groups (thromboxane receptor) | effect on aggregation or granule release (human platelet [1]) | individuals with strong inhibition of platelet activity in response to PGE2 (human platelet [2]; 76 individuals, FIG. 2) | individuals without significant inhibition of platelet aggregation in response to PGE2 (non-responders) (human platelet [2]; 76 individuals, FIG. 2) [%] | partial responders to PGE2 (human platelet [2]; 76 individuals, FIG. 2) [%] | effect on ADP-induced aggregation (human platelet [2]; FIG. 5) | effect on U46,610 aggregation (human platelet [2]; FIG. 5) | effect on collagen-induced aggregation (human platelet [2]; FIG. 5) | individuals in whom PGE2 affected the timing but not the final magnitude of aggregation (partial responders) (human platelet [2]; nanomolar PGE2) | individuals in whom PGE2 did not have detectable effects (nonresponders) (human platelet [2]; nanomolar PGE2) | individuals in whom PGE2 inhibits platelet aggregation (responders) (human platelet [2]; nanomolar PGE2, aggregation induced by U46,619 and PAR4-AP) | aggregation and dense granule release induced by sub-maximal U46,619 and thrombin (human platelet [2]; nanomolar PGE2, responder populations, FIG. 3) |
| --- | --- | --- | --- | --- | --- | --- | --- | --- | --- | --- | --- | --- |
| CCCCC[C@H](O)/C=C/[C@@H]1[C@@H](C/C=C\CCCC(=O)O)[C@H]2CO[C@@H]1C2 [U46,619] | No significant no difference |  |  |  |  |  |  |  |  |  |  |  |
| CCCCC[C@H](O)/C=C/[C@H]1[C@H](O)CC(=O)[C@@H]1C/C=C\CCCC(=O)O [PGE2, prostaglandin E2] |  | did not affect either aggregation or granule release | approximately 28% | 55 | 17 | no effect | did have an effect | no effect | approximately 31% | approximately 42% | approximately 26% | capable of preventing aggregation and dense granule release |
